Measured values reported in ChEMBL document CHEMBL3045342, “Quantitative relationship between insecticidal activity and Ca2+ pump stimulation by flubendiamide and its related compounds” (J Pestic Sci, 2009).
In brackets after ≈: the same amount, converted by molar mass. Activity calls are given as the source filed them. No cut-off for these calls is given here.

Columns and labels:
[1] = test system: Spodoptera litura; assay: Insecticidal activity against Spodoptera litura cabbage leaf disk after 4 to 7 days by leaf dipping method; type: functional; settings: foliar
[2] = target: Ryanodien receptor (Spodoptera exigua) (UniProt H9CNL0); assay: Activation of ryanodine receptor in sixth-instar larvae of Spodoptera litura muscle membrane assessed as induction of Ca2+ pump at 1 to 100 uM after 30 min
[3] = target: Ryanodien receptor (Spodoptera exigua) (UniProt H9CNL0); assay: Activation of ryanodine receptor in sixth-instar larvae of Spodoptera litura muscle membrane assessed as induction of Ca2+ pump at 0.4 uM after 30 min relative to control
[4] = target: Ryanodien receptor (Spodoptera exigua) (UniProt H9CNL0); assay: Activation of ryanodine receptor in sixth-instar larvae of Spodoptera litura muscle membrane assessed as induction of Ca2+ pump at 2 uM after 30 min relative to control
[5] = target: Ryanodien receptor (Spodoptera exigua) (UniProt H9CNL0); assay: Activation of ryanodine receptor in sixth-instar larvae of Spodoptera litura muscle membrane assessed as induction of Ca2+ pump at 0.1 uM after 30 min relative to control
[6] = target: Ryanodien receptor (Spodoptera exigua) (UniProt H9CNL0); assay: Activation of ryanodine receptor in sixth-instar larvae of Spodoptera litura muscle membrane assessed as induction of Ca2+ pump at 10 uM after 30 min relative to control
[7] = target: Ryanodien receptor (Spodoptera exigua) (UniProt H9CNL0); assay: Activation of ryanodine receptor in sixth-instar larvae of Spodoptera litura muscle membrane assessed as induction of Ca2+ pump at 1 uM after 30 min relative to control
[8] = target: Ryanodien receptor (Spodoptera exigua) (UniProt H9CNL0); assay: Activation of ryanodine receptor in sixth-instar larvae of Spodoptera litura muscle membrane assessed as induction of Ca2+ pump at 0.1 uM after 30 min in presence of ryanodine

Compound	LC50 [1] [µg/mL]	also measured
CSCC(C)(C)NC(=O)c1c(I)cccc1C(=O)Nc1ccc(C(F)(C(F)(F)F)C(F)(F)F)cc1C	0.03 (≈ 0.0461 µM)	–
CC(C)[C@@]1(O)[C@@H](OC(=O)c2cc[nH]c2)[C@@]2(O)[C@]3(C)C[C@@]4(O)O[C@@]5([C@H](O)[C@@H](C)CC[C@]35O)[C@@]2(O)[C@@]41C	–	Activity [2]: Active
Cc1cc(OC(F)(F)F)ccc1NC(=O)c1cccc(I)c1C(=O)NC(C)C	1 (≈ 1.98 µM)	–
CNc1ccc2oc(C[C@H]3O[C@@]4(CC[C@H]3C)O[C@H]([C@H](C)C(=O)c3ccc[nH]3)[C@H](C)C[C@H]4C)nc2c1C(=O)O	–	Activity [3]: 158%; Activity [4]: 358%
CSCC(C)(C)NC(=O)c1c(C(=O)Nc2ccc(C(F)(C(F)(F)F)C(F)(F)F)cc2C)cc(Cl)c(Cl)c1I	> 10	–
Cc1cc(C(F)(C(F)(F)F)C(F)(F)F)ccc1NC(=O)c1cccc(I)c1C(=O)NC(C)C	0.1 (≈ 0.169 µM)	–
Cc1cc(OC(F)F)ccc1NC(=O)c1cccc(I)c1C(=O)NC(C)C	1 (≈ 2.05 µM)	–
C/C=C(/C)C(=O)O[C@H]1C(C)=C2[C@H]([C@@H]1OC(=O)CCCCCCC)[C@@](C)(OC(C)=O)C[C@H](OC(=O)CCC)[C@@]1(O)[C@H]2OC(=O)[C@@]1(C)O	–	Activity [5]: 67.8%; Activity [6]: 31%; Activity [7]: 31.7%
Cc1cc(Cl)ccc1NC(=O)c1cccc(Br)c1C(=O)NC(C)C	10 (≈ 24.4 µM)	–
Cc1cc(C(F)(F)C(F)(F)F)ccc1NC(=O)c1cccc(I)c1C(=O)NC(C)C	0.3 (≈ 0.555 µM)	–
Cc1cc(Cl)ccc1NC(=O)c1ccccc1C(=O)NC(C)C	10 (≈ 30.2 µM)	–
Cc1cc(C(F)(C(F)(F)F)C(F)(F)F)ccc1NC(=O)c1cccc(I)c1C(=O)NC(C)(C)CS(C)(=O)=O [FLUBENDIAMIDE]	0.03 (≈ 0.044 µM)	Activity [8]: inactive
